“Also recorded” adds a separate entry of the source.
Experiments:
[1] = system: phosphorylated S6 protein; conditions: lung tissue concentration
Description: In the mouse strain used (C57bl/6), the mouse airway and alveolar epithelial cells have constitutively active (phosphorylated, “p”) S6 protein.

[2] = Determination of rapamycin in lung and blood following oropharyngeal aspiration (OPA) and oral gavage (LC-MS/MS); type: in vivo, male C57BL/6 mice; conditions: 1 mg/kg; for Blood concentration of rapamycin: OPA, 72 h post-dose
Description: Source (for oral gavage): Rapamune Oral® (Pfizer) for oral administration, Lot No.: MWGT, Expiration: July 2016.
Animals: Male C57BL/6 mice, approximately 8 weeks of age, from Charles River Laboratories, Inc, Raleigh, NC. Animals were fed Certified Purina Rodent Chow #5002 and were furnished tap water ad libitum. The analysis of each feed batch for nutrient levels and possible contaminants was performed by the supplier, examined by the Study Director, and maintained in the study records. […] Mice were housed (one per cage) in polycarbonate cages with stainless steel bar lids accommodating a water bottle. Cage sizes are approximately 11.5″×7.5″×5″ high (70 sq. in. floor space) for mice. Contact bedding was Sani-Chips hardwood chips (P. J. Murphy Forest Products Co.; Montville, NJ). Mice were quarantined for a period of 5 days before use on a study. A veterinarian or qualified designee examined the animals prior to their release from quarantine. Temperature and relative humidity in RTI animal rooms were continuously monitored, controlled, and recorded using an automated system (Siebe/Barber-Colman Network 8000 System with Revision 4.4.1 for Signal® software [Siebe Environmental Controls (SEC)/Barber-Colman Company; Loves Park, IL]). The target environmental ranges were 64-79° F. (18° C.-26° C.) for temperature and 30-70% relative humidity, with a 12-h light cycle per day. At the end of the in-life phase, the mice were euthanized by overexposure to carbon dioxide. […]
Dosing: Each animal was weighed prior to dosing to determine the amount of dose to be administered. […] The dose administered to each animal was determined from the weight of the full syringe minus that of the empty syringe. The dosing time was recorded. […]
The concentrations of standards were arranged so that each standard came from an alternate stock standard. A six-point calibration curve, each made in triplicate, was employed for analyte quantitation. […] The concentration range determined was from 1-2000 ng/mL in blood and 2-2000 ng/mL in lung homogenate. […]

[3] = system: renal angiomyolipomas; conditions: oral, up to 2 years, 16 patients; cited from earlier work
[4] = 2012 meta-analysis; cited from earlier work

| Compound | Drug in the lung that substantially abrogates mTOR signaling as measured by pS6 [1] | Blood concentration of rapamycin ([2]; group) | Blood concentration of rapamycin ([2]; individual animal) | Lung concentration of rapamycin ([2]; gavage (Rapamune Oral), 1 h post-dose, individual animal) | Renal angiomyolipoma response [3] | Cancer patients that may experience mild grade (pulmonary) toxicity [4] [%] |
| --- | --- | --- | --- | --- | --- | --- |
| CO[C@H]1C[C@@H]2CC[C@@H](C)[C@@](O)(O2)C(=O)C(=O)N2CCCC[C@H]2C(=O)O[C@H]([C@H](C)C[C@@H]2CC[C@@H](O)[C@H](OC)C2)CC(=O)[C@H](C)/C=C(\C)[C@@H](O)[C@@H](OC)C(=O)[C@H](C)C[C@H](C)/C=C/C=C/C=C/1C [Rapamycin, (3S,6R,7E,9R,10R,12R,14S,15E,17E,19E,21S,23S,26R,27R,34aS)-9,10,12,13,-14,21,22,23,24,25,26,27,32,33,34,34a-hexadecahydro-9,27-dihydroxy-3-[(1R)-2-[(1S,3R,4R)-4-hydroxy-3-methoxycyclohexyl]-1-methylethyl]-10,21-dimethox-y-6,8,12,14,20,26-hexamethyl-23,27-epoxy-3H-pyrido[2,1-c][1,4]oxaazacyclohentriacontine-1,5,11,28,29(4H,6H,31H)-pentone] | about 70 ng/g | below the limit of quantitation; also recorded: undetectable | <ELOQ | <LOQ | sustained regression | – |
| CO[C@H]1C[C@@H]2CC[C@@H](C)[C@@](O)(O2)C(=O)C(=O)N2CCCC[C@H]2C(=O)O[C@H]([C@H](C)C[C@@H]2CC[C@@H](OCCO)[C@H](OC)C2)CC(=O)[C@H](C)/C=C(\C)[C@@H](O)[C@@H](OC)C(=O)[C@H](C)C[C@H](C)/C=C/C=C/C=C/1C [everolimus] | – | – | – | – | – | 10 |
| CO[C@H]1C[C@@H]2CC[C@@H](C)[C@@](O)(O2)C(=O)C(=O)N2CCCC[C@H]2C(=O)O[C@H]([C@H](C)C[C@@H]2CC[C@@H](OC(=O)C(C)(CO)CO)[C@H](OC)C2)CC(=O)[C@H](C)/C=C(\C)[C@@H](O)[C@@H](OC)C(=O)[C@H](C)C[C@H](C)/C=C/C=C/C=C/1C [temsirolimus] | – | – | – | – | – | 10 |

Reference: patent US12171874B2 (OrphAI Therapeutics Inc., priority 2013, dated 2024)
